According to ChEMBL document CHEMBL3797116, “Modification on the O-glucoside of Sergliflozin-A: A new strategy for SGLT2 inhibitor design” (Bioorg Med Chem Lett, 2016):

How the values were obtained:
[1] = (§1) Metabolic stability in rat liver homogenate assessed as compound hydrolysis at 10 uM after 8 hrs; format: ADME, tissue-based; details: liver homogenate, read-out: Drug degradation
Rattus norvegicus [2] = experiment: In vivo hypoglycemic activity in Sprague-Dawley rat assessed as urinary […] glucose level per 200g of animal body weight measured for 8 to 12 hrs at 5 mL/kg, po (reference value: 0.21 +/- 0.01 mg); format: functional, Urine
Rattus norvegicus [3] = experiment: In vivo hypoglycemic activity in Sprague-Dawley rat assessed as urinary […] glucose level per 200g of animal body weight measured for 0 to 4 hrs at 5 mL/kg, po (reference value: 0.26 +/- 0.04 mg); format: functional, Urine
Rattus norvegicus [4] = experiment: In vivo hypoglycemic activity in Sprague-Dawley rat assessed as urinary […] glucose level per 200g of animal body weight measured for 12 to 24 hrs at 5 mL/kg, po (reference value: 1.45 +/- 0.28 mg); format: functional, Urine
Rattus norvegicus [5] = experiment: In vivo hypoglycemic activity in Sprague-Dawley rat assessed as urinary […] glucose level per 200g of animal body weight measured for 0 to 24 hrs at 5 mL/kg, po (reference value: 2.03 +/- 0.34 mg); format: functional, Urine
Rattus norvegicus [6] = experiment: In vivo hypoglycemic activity in Sprague-Dawley rat assessed as urinary […] glucose level per 200g of animal body weight measured for 4 to 8 hrs at 5 mL/kg, po (reference value: 0.14 +/- 0.03 mg); format: functional, Urine
[7] = Octanol-phosphate buffer saline partition coefficient, logP of the compound measured after 24 hrs by HPLC method; format: physicochemical
Rattus norvegicus [8] = experiment: In vivo hypoglycemic activity in Sprague-Dawley rat assessed as reduction in urinary […] glucose level per 200g of animal body weight measured for 0 to 24 hrs at 5 mL/kg, po; format: functional, Urine; set-up: scale not given: the % may be the effect or the level left
Rattus norvegicus [9] = experiment: In vivo hypoglycemic activity in Sprague-Dawley rat assessed as urinary […] glucose level per 200g of animal body weight measured for 0 to 6 hrs at 5 mL/kg, po; format: functional, Urine
Rattus norvegicus [10] = experiment: In vivo hypoglycemic activity in Sprague-Dawley rat assessed as urinary […] glucose level per 200g of animal body weight measured for 6 to 24 hrs at 5 mL/kg, po; format: functional, Urine
Liver = experiment: as §1; format: ADME, tissue-based; details: tissue homogenate, 8 h, 10 µM

Row | metabolised at 8 h, 10 µM [1] [%] | logP at 24 h [7] | Stability (Liver) | Compound | Activity (Rattus norvegicus [2]) [mg] | Activity (Rattus norvegicus [3]) [mg] | Activity (Rattus norvegicus [4]) [mg] | Activity (Rattus norvegicus [5]) [mg] | Activity (Rattus norvegicus [6]) [mg] | Activity (Rattus norvegicus [8]) [%] | Activity (Rattus norvegicus [9]) [mg] | Activity (Rattus norvegicus [10]) [mg]
1 | > 80 |  |  | Cc1cc(=O)oc2cc(O[C@@H]3O[C@H](CO)[C@@H](O)[C@H](O)[C@H]3O)ccc12 |  |  |  |  |  |  |  | 
2 |  |  |  | COc1ccc(Cc2ccccc2O[C@@H]2O[C@H](CO)[C@@H](O)C[C@H]2O)cc1 | 0.21 | 0.36 | 0.44 | 1.24 | 0.23 |  |  | 
3 |  | 1.83 |  | COc1ccc(Cc2ccccc2O[C@@H]2O[C@H](CO)[C@@H](OC)[C@H](O)[C@H]2O)cc1 | 11.01 | 102.46 | 0.78 | 172.94 | 58.68 | 73 |  | 
4 |  |  |  | COc1ccc(Cc2ccccc2O[C@@H]2O[C@H](CO)[C@@H](O)[C@H](O)[C@H]2OC)cc1 | 0.02 | 0.11 | 0.11 | 0.27 | 0.03 |  |  | 
5 |  |  |  | COc1ccc(Cc2ccccc2O[C@@H]2O[C@H](CO)[C@@H](O)[C@H](O)[C@H]2F)cc1 |  |  |  | 16 |  |  | 4.9 | 11
6 |  |  |  | COc1ccc(Cc2ccccc2O[C@@H]2O[C@H](CF)[C@@H](O)[C@H](O)[C@H]2O)cc1 | 0.13 | 2.34 | 1.02 | 4.52 | 1.03 |  |  | 
7 |  |  |  | COC[C@H]1O[C@@H](Oc2ccccc2Cc2ccc(OC)cc2)[C@H](O)[C@@H](O)[C@@H]1O | 7.19 | 61.23 | 0.76 | 73.29 | 4.11 | 31 |  | 
8 |  |  |  | COc1ccc(Cc2ccccc2O[C@@H]2O[C@H](CO)[C@@H](O)[C@H](OC)[C@H]2O)cc1 | 0.65 | 13.67 | 0.24 | 18.67 | 4.11 |  |  | 
9 |  |  | Stable | CO[C@H]1[C@H](O)[C@@H](O)[C@H](Oc2ccc3oc(=O)cc(C)c3c2)O[C@@H]1CO |  |  |  |  |  |  |  | 
10 |  |  |  | COc1ccc(Cc2ccccc2O[C@@H]2O[C@H](C)[C@@H](O)[C@H](O)[C@H]2O)cc1 | 0.07 | 33.36 | 0.8 | 34.91 | 0.69 |  |  | 
11 |  |  |  | COc1ccc(Cc2ccccc2O[C@@H]2O[C@H](CO)C[C@H](O)[C@H]2O)cc1 | 0.42 | 8.21 | 1.73 | 11.05 | 0.68 |  |  | 
12 |  | 1.32 |  | COc1ccc(Cc2ccccc2O[C@@H]2O[C@H](CO)[C@@H](O)[C@H](O)[C@H]2O)cc1 [SERGLIFLOZIN A] | 33.8 | 126.99 | 39.44 | 235.03 | 34.8 |  |  | 
